According to ChEMBL document CHEMBL3085759, “Structure-activity relationship (SAR) and preliminary mode of action studies of 3-substituted benzylthioquinolinium iodide as anti-opportunistic infection agents” (Eur J Med Chem, 2013):
Converted amounts (≈) assume the structure as drawn. The source made the active and inactive calls. The calls are words filed in the database; no cut-off is given here.

Experiments:
Saccharomyces cerevisiae = assay: Antimicrobial activity against Saccharomyces cerevisiae expressing rad52 mutant gene assessed as increase in sensitivity at 20 umol/L by spectrophotometry relative to wild type; assay type: functional
Candida albicans = assay: Antimicrobial activity against Candida albicans ATCC 90028 by Alamar blue method; assay type: functional, organism-based
Staphylococcus aureus [1] = assay: Antimicrobial activity against methicillin-resistant Staphylococcus aureus ATCC 33591 by Alamar blue method; assay type: functional, organism-based
Pichia kudriavzevii [2] = assay: Antimicrobial activity against Candida krusei ATCC 6258 by Alamar blue method; assay type: functional, organism-based
Nakaseomyces glabratus [3] = assay: Antimicrobial activity against Candida glabrata by Alamar blue method; assay type: functional, organism-based
Aspergillus fumigatus = assay: Antimicrobial activity against Aspergillus fumigatus ATCC 204305 by Alamar blue method; assay type: functional, organism-based
[4] = test system: Mycobacterium intracellulare; assay: Antimicrobial activity against Mycobacterium intracellulare ATCC 23068 by Alamar blue method; assay type: functional, organism-based
Cryptococcus neoformans = assay: Antimicrobial activity against Cryptococcus neoformans ATCC 90113 by Alamar blue method; assay type: functional, organism-based
Staphylococcus aureus [5] = assay: Antimicrobial activity against Staphylococcus aureus ATCC 29213 by Alamar blue method; assay type: functional, organism-based; conditions: Staphylococcus aureus, ATCC 29213; for IC50: read-out: IC50
[6] = Cytotoxicity against african green monkey Vero cells after 48 hrs by Neutral Red dye assay; assay type: cell-based; conditions: chlorocebus sabaeus, read-out: TC50
[7] = Selectivity index, ratio of TC50 for african green monkey Vero cells to IC50 for Cryptococcus neoformans ATCC 90113; assay type: toxicity, cell-based; conditions: read-out: Selectivity Index
Pichia kudriavzevii [8] = assay: Ratio of fluconazole MFC to compound MFC for Candida krusei ATCC 6258 by Alamar blue method; assay type: functional
Nakaseomyces glabratus [9] = assay: Ratio of fluconazole MFC to compound MFC for Candida glabrata by Alamar blue method; assay type: functional
Vero = assay: Cytotoxicity against african green monkey Vero cells at 10 ug/ml after 48 hrs by Neutral Red dye assay; assay type: cell-based; conditions: chlorocebus sabaeus
Nakaseomyces glabratus [10] = assay: Antimicrobial activity against Candida glabrata at 20 ug/ml by Alamar blue method; assay type: functional, organism-based

Row | SMILES | IC50 (Candida albicans) [µg/mL] | MFC (Candida albicans) | MIC (Candida albicans) | IC50 (Staphylococcus aureus [1]) [µg/mL] | MBC (Staphylococcus aureus [1]) [µg/mL] | MIC (Staphylococcus aureus [1]) [µg/mL] | IC50 (Pichia kudriavzevii [2]) [µg/mL] | MFC (Pichia kudriavzevii [2]) [µg/mL] | MIC (Pichia kudriavzevii [2]) [µg/mL] | IC50 (Nakaseomyces glabratus [3]) [µg/mL] | MFC (Nakaseomyces glabratus [3]) | MIC (Nakaseomyces glabratus [3]) | IC50 (Aspergillus fumigatus) [µg/mL] | MFC (Aspergillus fumigatus) [µg/mL] | MIC (Aspergillus fumigatus) [µg/mL] | IC50 [4] [µg/mL] | MBC [4] [µg/mL] | MIC [4] [µg/mL] | MFC (Cryptococcus neoformans) [µg/mL] | MIC (Cryptococcus neoformans) [µg/mL] | also measured
1 | COc1cccc2c1C(=O)c1c(O)c3c(c(O)c1C2=O)C[C@@](O)(C(=O)CO)C[C@@H]3O[C@H]1C[C@H](N)[C@H](O)[C@H](C)O1 [DOXORUBICIN] |  |  |  |  |  |  |  |  |  |  |  |  |  |  |  |  |  |  |  |  | fold change (FC) (Saccharomyces cerevisiae): >100
2 | Cc1cccc(CSc2cc3ccccc3[n+](CCCCCC3CCCCC3)c2)c1.[I-] | 2 | 5 µg/mL | 5 µg/mL | 0.72 | 2.5 | 1.3 | 0.67 | 2.5 | 2.5 | 3.3 | 10 µg/mL | 5 µg/mL | 5.8 | 10 | 10 | 7.2 | 10 | 10 | 0.63 | 0.63 | MBC (Staphylococcus aureus [5]): 2.5 µg/mL; MIC (Staphylococcus aureus [5]): 1.3 µg/mL; IC50 (Staphylococcus aureus [5]): 0.64 µg/mL; CC50 at 48 h [6]: 5 µg/mL
3 | Cc1ccc(CSc2cc3ccccc3[n+](CCCCCC3CCCCC3)c2)cc1.[I-] | 1.4 | 5 µg/mL | 2.5 µg/mL | 0.49 | 2.5 | 1.3 | 0.27 | 1.3 | 1.3 | 3.1 | 5 µg/mL | 5 µg/mL | 4.5 | 10 | 10 | 7.5 | 10 | 10 | 0.31 | 0.31 | MBC (Staphylococcus aureus [5]): 2.5 µg/mL; MIC (Staphylococcus aureus [5]): 0.63 µg/mL; IC50 (Staphylococcus aureus [5]): 0.39 µg/mL; CC50 at 48 h [6]: 6.8 µg/mL
4 | [I-].c1ccc2cc(Sc3cc4ccccc4[n+](CCCCCC4CCCCC4)c3)ccc2c1 | 0.42 | 2.5 µg/mL | 1.3 µg/mL | 0.35 | 2.5 | 0.63 | 0.09 | 0.63 | 0.63 | 0.87 | 2.5 µg/mL | 2.5 µg/mL | 1.2 | 2.5 | 2.5 | 4.2 | 10 | 5 | 0.16 | 0.16 | selectivity ratio [7]: > 111; IC50 (Cryptococcus neoformans): 0.09 µg/mL; MBC (Staphylococcus aureus [5]): 2.5 µg/mL; MIC (Staphylococcus aureus [5]): 0.63 µg/mL; IC50 (Staphylococcus aureus [5]): 0.34 µg/mL; Ratio (Pichia kudriavzevii [8]): 79; Ratio (Nakaseomyces glabratus [9]): 79
5 | OC(Cn1cncn1)(Cn1cncn1)c1ccc(F)cc1F [FLUCONAZOLE] | 0.12 (≈ 0.392 µM) | inactive | inactive |  |  |  | 27 (≈ 88.2 µM) | 50 (≈ 163 µM) | 50 (≈ 163 µM) | 27 (≈ 88.2 µM) | inactive | inactive |  |  |  |  |  |  | 13 (≈ 42.4 µM) | 6.3 (≈ 20.6 µM) | IC50 (Cryptococcus neoformans): 0.21 µg/mL (≈ 0.686 µM); Activity (Vero): Non-toxic; Activity (Nakaseomyces glabratus [10]): inactive
